Assay results published in patent US9895363B2, “Methods for modulating function of proliferating cell nuclear antigen (PCNA) and treating cancer with PCNA-targeting compounds” (University of Cincinnati, priority 2010, dated 2018).
Where two headings read alike, the source gives them in different places.

Legend:
[1] = test system: TRAMP-C2RE3 prostate cancer cells; assay: Growth inhibition by MTT staining, TRAMP-C2RE3; assay type: cell-based; conditions: 96 h, Mouse, Prostate tumor cells, treated four days
Experimental: (§1) Growth inhibitory effects of PCNA-I1 and PCNA-I2 were assessed in human cancer cell lines, mouse cancer cell lines, immortalized mouse cell lines, and human primary cell lines. Specifically, growth inhibitory effects of PCNA-I1 and PCNA-I2 were assessed using MTT staining in the following cells lines: 1) human cancer cell lines including LNCaP (androgen receptor […]), 22Rv1, DU-145, LAPC-4, and PC-3 (androgen receptor […]) prostate cancer cells; MCF-7 and T47D breast cancer cells; A375 and MDA-MB435 melanoma cells; 2) mouse cancer cell lines including TRAMP-C2RE3 prostate cancer cells, B16 and K1735 melanoma cells, UV2237 fibrosarcoma cells, and CT-26 colon cancer cells; 3) immortalized mouse lung cell lines and mouse endothelial cell lines; and 4) primary human cell lines including umbilical endothelial cells (HUVEC, PromoCell, Heidelberg, Germany), primary bone marrow mesenchymal stem cells (HuMSC, PromoCell), primary human mammary epithelial cells (HuBrEC, Lonza, Walkersville, Md.), primary human prostate epithelial cells (HuPrEC, Lonza), and primary mouse spleen lymphocytes (isolated in this laboratory), and primary mouse bone marrow stromal cells (isolated in this laboratory). […]
(§2) IC50 values were derived from growth inhibition curves. […] Inhibition of cell growth was calculated using the formula: growth inhibition (%)=(1−A570 of treated/A570 of control)×100. […]

[2] = test system: primary bone marrow mesenchymal stem cells (MSC); assay: Growth inhibition, bone marrow mesenchymal stem cells; assay type: cell-based, Human
Experimental: as §1, §2

MDA-MB435 melanoma cells = assay: Growth inhibition by MTT staining, MDA-MB435; assay type: cell-based; conditions: MDA-MB-435, 96 h, Human, treated four days
Experimental: as §1, §2

PC-3 cells [3] = assay: MTT assay, PCNA-I1 and cisplatin alone or combined, PC-3; assay type: cell-based, Human; conditions: Homo sapiens
Experimental: LNCaP or PC-3 cells were treated with a variety of concentrations of PCNA-I1 (0.1-10 μM) or cisplatin (0.1-10 μM) alone, or with a variety of concentrations of a combination of PCNA-I1 (0.1-10 μM) and cisplatin (0.1-10 μM) for four days. MTT assays were performed and IC50 values for PCNA-I1 and cisplatin were determined.

Normal Cells = assay: Growth inhibition, mean over normal cells; assay type: cell-based
Experimental: as §1, §2

GFP-PCNA = GFP-PCNA chromatin association, fluorescence microscopy; assay type: cell-based, Human; conditions: PC-3 transfected with pGFP-PCNA; 4 H, 0.5 μM PCNA-I1 or 2 μM PCNA-I2; FIG. 11
Experimental: Additionally, PC-3 cells were transfected for 24 H with pGFP-PCNA. The cells were then treated for 4 H with 0.5 μM of PCNA-I1 or 2 μM of PCNA-I2. The intact GFP-PCNA expressing cells were observed under a fluorescent microscope and recorded. After treatment with a buffer with 0.5% NP-40 buffer B, the cells were examined and recorded.

PC-3 cells [4] = assay: Cell growth after single 24 H pre-treatment (Alamar blue); assay type: cell-based, Human; conditions: 0.5 μM for 24 H, washed, Alamar blue up to 144 H; FIG. 1
Source text: The necessity of a continuous presence of PCNA-I1 for cell growth was also investigated.

Tumor Cells = assay: Growth inhibition, mean over tumor cell lines; assay type: cell-based; conditions: mean over all tumor cell lines; read-out: IC50 Values, Tumor Cells, Mean ± SD
Experimental: as §1, §2

PCNA = biological target: T1, PCNA (Homo sapiens, UniProt P12004); assay: Euchromatin- and heterochromatin-associated PCNA; assay type: cell-based; conditions: PC-3, 0.5 μM, 8 H; FIG. 12
T1 construct: endogenous PCNA was knocked down with transfection of PCNA-specific siRNA; endogenous in cells; host or cells: PC-3
T1 sequence (P12004 whole entry): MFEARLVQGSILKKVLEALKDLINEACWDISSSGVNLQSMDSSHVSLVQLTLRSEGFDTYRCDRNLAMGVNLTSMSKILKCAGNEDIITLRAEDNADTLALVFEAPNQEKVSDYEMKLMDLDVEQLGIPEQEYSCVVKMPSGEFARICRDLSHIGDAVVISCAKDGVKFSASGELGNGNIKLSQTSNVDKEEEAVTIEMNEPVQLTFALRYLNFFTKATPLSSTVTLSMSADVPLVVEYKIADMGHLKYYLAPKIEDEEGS
Experimental: Differential effects of PCNA-I1 on the level of euchromatin- (often under active gene transcription) and heterchromatin (often under limited gene transcription) associated PCNA were also investigated. Specifically, PC-3 cells were treated for 8 H with 0.5 μM of PCNA-I1 and PCNA was extracted by procedures known in the art with a combination of limited digestion with micrococcal nuclease and treatment with EDTA to obtain total (S1), euchromatin-associated (S2), and heterochromatin-associated (S3). The extracts were subjected to western blotting analysis.

[5] = test system: UV2237 fibrosarcoma cells; assay: Growth inhibition by MTT staining, UV2237; assay type: cell-based; conditions: 96 h, Mouse, treated four days
Experimental: as §1, §2

SMILES: Cc1ccsc1C(=O)N/N=C/c1ccc2ccccc2c1O [PCNA-I1]
- IC50 [1]: 0.2 µM
- IC50 ([2]; Homo sapiens, FIG. 2(C), read-out: IC50, MSC): 0.989 µM
- IC50 ([2]; Human, Bone Marrow, normal cells, read-out: IC50 Values, Mesenchymal Stem Cells): 0.99 µM
- IC50 (MDA-MB435 melanoma cells): 0.29 µM
- IC50 (PC-3 cells [3]; PC-3, 96 h, MTT, four days, single agent, read-out: IC50 doses for cell growth inhibition, PC-3, agent alone): 0.24 µM
- IC50 (PC-3 cells [3]; PC-3, combined with 0.3 μM cisplatin, read-out: PCNA-I1 concentration giving 50% inhibition in combination, PC-3): 0.08 µM
- IC50 (Normal Cells; mean over all normal cells, read-out: IC50 Values, Normal Cells, Mean ± SD): 1.43 ± 0.45 µM
- Concentrations inhibiting growth of normal cells by 50% relative to those for tumor cells (Normal Cells; normal vs tumor cells, p<0.001): approximately 8 times
- Level of chromatin-associated GFP-PCNA (GFP-PCNA): reduced the level of chromatin-associated GFP-PCNA
- Total intensity of GFP-PCNA (GFP-PCNA): did not significantly alter the total intensity of GFP-PCNA
- Duration of growth inhibition after single one-day pre-treatment (PC-3 cells [4]): sufficient to inhibit cell growth for up to seven days
- IC50 (Tumor Cells): 0.19 ± 0.09 µM
- Euchromatin- and heterochromatin-associated PCNA (PCNA): reduced both euchromatin- and heterochromatin protein 1α
- IC50 [5]: 0.25 µM
